According to patent publication US20240132457A1, “3-(2-(BENZO[D]THIAZOL-2-YL)-2-(PHENYLSUFONAMIDO)ETHYL)BENZIMIDAMIDE DERIVATIVES AND RELATED COMPOUNDS AS TMPRSS2 INHIBITORS FOR THE TREATMENT OF VIRAL INFECTIONS” (INTEGERBIO, INC., priority 2020, published 2024):

Biological target: T1, Recombinant human TMPRSS2 protein (106-492 aa) (Homo sapiens, UniProt O15393)
T1 construct: Human TMPRSS2-(AA 106-492)-; purchased CusaBio CSB-YP023924HU; host or cells: yeast
Assay: TMPRSS2 Assay 1 (Example 41), fluorogenic Boc-Gln-Ala-Arg-AMC cleavage
Format: biochemical
Conditions: TMPRSS2 10 nM, substrate 25 μM, 20 min pre-incubation
Description: The enzyme (TMPRSS2, CusaBio cat #CSB-YP023924HU. Recombinant human TMPRSS2 protein (106-492 aa)N-terminal 6×His-tagged (“6×His” disclosed as SEQ ID NO: 4), expressed in yeast cells; MW=44.8 kDa, lyophilized from 20 mM: Tris HCl, 0.5 M NaCl, 6% Trehalose, pH 8.0, >85% purity as determined by SDS-PAGE. Uniprot: 015393; 10 nM in the reaction) and substrate (Boc-Gln-Ala-Arg-AMC; Enzo Cat #BML-P237-0005, MW=581.76 Da. 25 μM in the reaction) were prepared in Reaction Buffer (50 mM Tris-HCl pH 8, 150 mM NaCl, 0.005% Brij35, 1% DMSO). After the enzyme solution was delivered into the reaction well, the compounds in DMSO were delivered to the reaction mixture by using Acoustic Technology (Echo 550, LabCyte Inc. Sunnyvale, CA) in nanoliter range. After 20 min pre-incubation, the substrate solution was delivered into the reaction well to initiate the reaction. The enzyme activities were monitored every 5 min as a time-course measurement of the increase in fluorescence signal from fluorescently-labeled peptide substrate for 120 min. at room temperature. Data was analyzed by taking slope*(signal/time) of linear portion of measurement. The slope was calculated using Excel, and the curve fits were performed using Prism software.

T1 sequence (O15393 106-492): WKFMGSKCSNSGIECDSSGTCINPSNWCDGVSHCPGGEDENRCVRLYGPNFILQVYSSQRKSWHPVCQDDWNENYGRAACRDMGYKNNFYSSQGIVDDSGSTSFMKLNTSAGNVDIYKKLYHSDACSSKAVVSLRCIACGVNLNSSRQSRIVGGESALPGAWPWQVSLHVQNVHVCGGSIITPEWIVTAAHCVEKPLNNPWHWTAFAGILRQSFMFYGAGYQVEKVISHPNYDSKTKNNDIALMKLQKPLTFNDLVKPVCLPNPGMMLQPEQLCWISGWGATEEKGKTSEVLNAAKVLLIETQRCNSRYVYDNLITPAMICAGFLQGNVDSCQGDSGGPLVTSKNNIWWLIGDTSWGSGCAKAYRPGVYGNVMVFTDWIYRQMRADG

IC50	SMILES
< 10 µM	N=C(N)c1cccc(CC(NS(=O)(=O)c2cccc(-c3ccc(Cl)cc3Cl)c2)c2nccs2)c1 (single isomer, unassigned) [5 (Isomer 1, batch 1), 3-[2-{2′,4′-Dichloro-[1,1′-biphenyl]-3-sulfonamido}-2-(1,3-thiazol-2-yl)ethyl]benzene-1-carboximidamide]
> 10 µM	N=C(N)c1cccc(CC(NS(=O)(=O)c2ccccc2)c2nc3cc(C(F)(F)F)ccc3s2)c1 (single isomer, unassigned) [12 (enantiomer 1), 3-{2-Benzenesulfonamido-2-[5-(trifluoromethyl)-1,3-benzothiazol-2-yl]ethyl}benzene-1-carboximidamide]
< 10 µM	N=C(N)c1cccc(CC(NS(=O)(=O)c2ccccc2)c2nc3cc(C(F)(F)F)ccc3s2)c1 (single isomer, unassigned) [12 (enantiomer 2), 3-{2-Benzenesulfonamido-2-[5-(trifluoromethyl)-1,3-benzothiazol-2-yl]ethyl}benzene-1-carboximidamide]
> 10 µM	N=C(N)c1cccc(CC(NS(=O)(=O)c2ccccc2)c2nc3cccc(Cl)c3s2)c1 (single isomer, unassigned) [13 (enantiomer 1), 3-[2-Benzenesulfonamido-2-(7-chloro-1,3-benzothiazol-2-yl)ethyl]benzene-1-carboximidamide]
< 10 µM	N=C(N)c1cccc(CC(NS(=O)(=O)c2ccccc2)c2nc3cccc(Cl)c3s2)c1 (single isomer, unassigned) [13 (enantiomer 2), 3-[2-Benzenesulfonamido-2-(7-chloro-1,3-benzothiazol-2-yl)ethyl]benzene-1-carboximidamide]
> 10 µM	N=C(N)c1cccc(CC(NS(=O)(=O)c2ccccc2)c2nc3ccc(C(F)(F)F)cc3s2)c1 (single isomer, unassigned) [14 (enantiomer 1)]
< 10 µM	N=C(N)c1cccc(CC(NS(=O)(=O)c2ccccc2)c2nc3ccc(C(F)(F)F)cc3s2)c1 (single isomer, unassigned) [14 (enantiomer 2)]
< 10 µM	N=C(N)c1cccc(CC(NS(=O)(=O)c2cccc(-c3ccc(Cl)cc3Cl)c2)c2nccs2)c1 (single isomer, unassigned) [Compound 5 (Isomer 2), 3-[2-{2′,4′-Dichloro-[1,1′-biphenyl]-3-sulfonamido}-2-(1,3-thiazol-2-yl)ethyl]benzene-1-carboximidamide]
< 10 µM	N=C(N)c1cccc(CC(NS(=O)(=O)c2cccc(-c3ccc(Cl)cc3Cl)c2)c2nccs2)c1 (single isomer, unassigned) [Compound 5 (Isomer 3), 3-[2-{2′,4′-Dichloro-[1,1′-biphenyl]-3-sulfonamido}-2-(1,3-thiazol-2-yl)ethyl]benzene-1-carboximidamide]
< 10 µM	N=C(N)c1cccc(C[C@H](NS(=O)(=O)c2ccccc2)c2nc3ccc(C(F)(F)F)cc3s2)c1 [14 (batch 1), 3-[(2S)-2-Benzenesulfonamido-2-[6-(trifluoromethyl)-1,3-benzothiazol-2-yl]ethyl]benzene-1-carboximidamide]
> 10 µM	N=C(N)c1cccc(CC(NS(=O)(=O)c2cccc(Br)c2)c2nccs2)c1 (stereo not drawn) [Compound 4, 3-[2-(3-Bromobenzenesulfonamido)-2-(1,3-thiazol-2-yl)ethyl]benzene-1-carboximidamide]
> 10 µM	Cn1cnnc1[C@H](Cc1cccc(C(=N)N)c1)NS(=O)(=O)c1cccc(-c2ccc(Cl)cc2Cl)c1 [Compound 6, 3-[(2S)-2-{2′,4′-Dichloro-[1,1′-biphenyl]-3-sulfonamido}-2-(4-methyl-4H-1,2,4-triazol-3-yl)ethyl]benzene-1-carboximidamide]
> 10 µM	N=C(N)c1cccc(CC(NS(=O)(=O)c2ccccc2)c2ncc[nH]2)c1 (stereo not drawn) [Compound 7, 2-[2-{3-[Amino(iminiumyl)methyl]phenyl}-1-benzenesulfonamidoethyl]-1H-imidazol-3-ium dichloride]
< 10 µM	Cc1ccc2sc(C(Cc3cccc(C(=N)N)c3)NS(=O)(=O)c3ccccc3)nc2c1 (stereo not drawn) [Compound 9, 3-[2-Benzenesulfonamido-2-(5-methyl-1,3-benzothiazol-2-yl)ethyl]benzene-1-carboximidamide]
> 10 µM	N=C(N)c1cccc(CC(NS(=O)(=O)c2ccccc2)c2nc3c(s2)CNCC3)c1 (stereo not drawn) [Compound 10, 3-(2-Benzenesulfonamido-2-{4H,5H,6H,7H-[1,3]thiazolo[5,4-c]pyridin-2-yl}ethyl)benzene-1-carboximidamide]
< 10 µM	N=C(N)c1cccc(CC(NS(=O)(=O)c2ccccc2)c2nc3cc(C(F)(F)F)ccc3s2)c1 (stereo not drawn) [Compound 12, 3-{2-Benzenesulfonamido-2-[5-(trifluoromethyl)-1,3-benzothiazol-2-yl]ethyl}benzene-1-carboximidamide]
< 10 µM	N=C(N)c1cccc(CC(NS(=O)(=O)c2ccccc2)c2nc3cccc(Cl)c3s2)c1 (stereo not drawn) [Compound 13, 3-[2-Benzenesulfonamido-2-(7-chloro-1,3-benzothiazol-2-yl)ethyl]benzene-1-carboximidamide]
< 10 µM	CN1CCN(c2cccc3nc(C(Cc4cccc(C(=N)N)c4)NS(=O)(=O)c4ccccc4)sc23)CC1 (stereo not drawn) [Compound 15, 3-{2-Benzenesulfonamido-2-[7-(4-methylpiperazin-1-yl)-1,3-benzothiazol-2-yl]ethyl}benzene-1-carboximidamide]
> 10 µM	CN(C)CCN(C)c1cccc2nc(C(Cc3cccc(C(=N)N)c3)NS(=O)(=O)c3ccccc3)sc12 (stereo not drawn) [Compound 16, 3-[2-Benzenesulfonamido-2-(7-{[2-(dimethylamino)ethyl](methyl)amino}-1,3-benzothiazol-2-yl)ethyl]benzene-1-carboximidamide]
< 10 µM	COCCN(C)c1cccc2nc(C(Cc3cccc(C(=N)N)c3)NS(=O)(=O)c3ccccc3)sc12 (stereo not drawn) [Compound 17, 3-(2-Benzenesulfonamido-2-{7-[(2-methoxyethyl)(methyl)amino]-1,3-benzothiazol-2-yl}ethyl)benzene-1-carboximidamide]
< 10 µM	N=C(N)c1cccc(CC(NS(=O)(=O)c2ccccc2)c2nc3cnccc3s2)c1 (stereo not drawn) [Compound 18, 3-(2-Benzenesulfonamido-2-{[1,3]thiazolo[4,5-c]pyridin-2-yl}ethyl)benzene-1-carboximidamide]
< 10 µM	N=C(N)c1cccc(CC(NS(=O)(=O)c2ccccc2)c2nc3cccnc3s2)c1 (stereo not drawn) [Compound 19, 3-(2-Benzenesulfonamido-2-{[1,3]thiazolo[5,4-b]pyridin-2-yl}ethyl)benzene-1-carboximidamide]
< 10 µM	N=C(N)c1cccc(CC(NS(=O)(=O)c2ccccc2)c2nc3ccc(O)cc3s2)c1 (stereo not drawn) [Compound 20, 3-[2-(benzenesulfonamido)-2-(6-hydroxy-1,3-benzothiazol-2-yl)ethyl]benzamidine]

SMILES	IC50
N=C(N)c1cccc(CC(NS(=O)(=O)c2cccc(-c3ccc(Cl)cc3Cl)c2)c2nc3ccccc3s2)c1 (single isomer, unassigned) [3 (enantiomer 1), 3-[2-(1,3-Benzothiazol-2-yl)-2-{2′,4′-dichloro-[1,1′-biphenyl]-3-sulfonamido}ethyl]benzene-1-carboximidamide]	> 10 µM
N=C(N)c1cccc(CC(NS(=O)(=O)c2cccc(-c3ccc(Cl)cc3Cl)c2)c2nc3ccccc3s2)c1 (single isomer, unassigned) [3 (enantiomer 2), 3-[2-(1,3-Benzothiazol-2-yl)-2-{2′,4′-dichloro-[1,1′-biphenyl]-3-sulfonamido}ethyl]benzene-1-carboximidamide]	< 10 µM
COc1ccc2nc(C(Cc3cccc(C(=N)N)c3)NS(=O)(=O)c3ccccc3)sc2c1 (single isomer, unassigned) [11 (enantiomer 1), 3-[2-Benzenesulfonamido-2-(6-methoxy-1,3-benzothiazol-2-yl)ethyl]benzene-1-carboximidamide]	> 10 µM
COc1ccc2nc(C(Cc3cccc(C(=N)N)c3)NS(=O)(=O)c3ccccc3)sc2c1 (single isomer, unassigned) [11 (enantiomer 2), 3-[2-Benzenesulfonamido-2-(6-methoxy-1,3-benzothiazol-2-yl)ethyl]benzene-1-carboximidamide]	< 10 µM
N=C(N)c1cccc(CC(NS(=O)(=O)c2ccccc2)c2nc3ccccc3s2)c1 (single isomer, unassigned) [Compound 1 (enantiomer 1, batch 1), 3-[2-Benzenesulfonamido-2-(1,3-benzothiazol-2-yl)ethyl]benzene-1-carboximidamide]	> 10 µM
N=C(N)c1cccc(CC(NS(=O)(=O)c2ccccc2)c2nc3ccccc3s2)c1 (single isomer, unassigned) [Compound 1 (enantiomer 2, batch 1), 3-[2-Benzenesulfonamido-2-(1,3-benzothiazol-2-yl)ethyl]benzene-1-carboximidamide]	< 10 µM
COc1ccc2nc(C(Cc3cccc(C(=N)N)c3)NS(=O)(=O)c3ccccc3)sc2c1 (stereo not drawn) [Compound 8, 3-[2-Benzenesulfonamido-2-(6-methoxy-1,3-benzothiazol-2-yl)ethyl]benzene-1-carboximidamide]	< 10 µM
